# Data reported in patent US10208012B2, “Compounds for treating inflammatory and hyperproliferative diseases” (Board of Regents, The University of Texas System, priority 2013, dated 2019).
# Where two headings read alike, the source gives them in different places.
# Legend:
# [1] = test system: mantle cell lymphoma cell lines (Mino and Z-138); assay: Thymidine incorporation proliferation assay in mantle cell lymphoma cell lines; assay type: cell-based
# Method: (§1) FIG. 1. Effect of Tumeric Derivatives in MCL cells. Six TMX analogs were screened in two mantle cell lymphoma cell lines (Mino and Z-138). These assays were performed by treating cells with increasing doses of TMX (0-25 μM) and analyzed by thymidine incorporation (proliferation assay).
# as §1, with “2.” for “1.”, “Turmerax Compounds” for “Tumeric Derivatives”, “MCLs. 10 additional” for “MCL cells. Six”, “analogs derived from compound #6 (from FIG. 1)” for “analogs”
# FIG. 3. Effect of Turmerax Compounds in MCLs. Four compounds from FIG. 2 were selected to analyze at concentrations below 1 μM for cell growth inhibition in vitro.
# Malignant lymphoma continues to represent a major health issue in the US and worldwide. Non-Hodgkin lymphomas (NHL) are a common, heterogeneous group of primarily (˜85%) B lymphoid cell neoplasms (NHL-B) arising in the B cell lineage of the human immune (lymphoid) system. NHL-Bs are the fifth most common cancer in the USA (˜65,000 new cases/25,000 deaths expected in 2010). Therefore, there is a great need for novel treatment strategies for this deadly cancer, particularly for relapsed/refractory lymphomas. Relapsed/refractory (r/rDLBCL) DLBCL is one of the most difficult scientific challenges and severe unmet therapeutic needs in clinical oncology today. This is due largely to very drug resistant tumor cells with very poor responses (<20% PR/CR) to current “salvage” therapies. Key pathways (NF-kB, AKT, STAT3), controlling cell growth/survival and chemoresistance in DLBCL have been discovered. Since natural compounds such as turmeric can target multiple pathways with low cellular toxicity, novel compounds with higher potency for cancer cells were sought. Initially, 6 novel turmeric analogues were designed and synthesized using cyclic thioketone and different substituted aromatic aldehydes. […] These compounds were named turmerax (TMX) (1-10), and tested them in the two resistant mantle cell lymphoma cell lines (Mino and Z-138). […] Turmerax compounds 1, 3, 5 and 9 were further analyzed at concentrations below 1 μM for cell growth inhibition in vitro. […] Next, the toxicity of these Turmerax compounds (1, 3, 5 and 9) was evaluated in normal human peripheral blood mononuclear cells (PBMC). […] The effectiveness of Turmerax compounds 1 and 5 in four MCL cell lines were examined, four LBCL cell lines (both ABC and GCB-type) and one follicular lymphoma cell line (CJ) in comparison to the wild type (natural) curcumin compound, to which these compounds bear some structural relatedness. The IC50 for Turmerax cmpds.
# [2] = test system: normal human peripheral blood mononuclear cells (PBMC); assay: Cytotoxicity in normal PBMC by thymidine incorporation; assay type: cell-based; conditions: minimal toxicity stated for drug concentration below 600 nM
# Source text: FIG. 4. Effect of Turmerax compounds in normal peripheral blood mononuclear cells (PBMC). Turmeric analogues (1, 3, 5, and 9) were evaluate for cytoxicity in normal human peripheral blood mononuclear cells (PBMC) by thymidine incorporation assays.
# Malignant lymphoma continues to represent a major health issue in the US and worldwide. Non-Hodgkin lymphomas (NHL) are a common, heterogeneous group of primarily (˜85%) B lymphoid cell neoplasms (NHL-B) arising in the B cell lineage of the human immune (lymphoid) system. NHL-Bs are the fifth most common cancer in the USA (˜65,000 new cases/25,000 deaths expected in 2010). Therefore, there is a great need for novel treatment strategies for this deadly cancer, particularly for relapsed/refractory lymphomas. Relapsed/refractory (r/rDLBCL) DLBCL is one of the most difficult scientific challenges and severe unmet therapeutic needs in clinical oncology today. This is due largely to very drug resistant tumor cells with very poor responses (<20% PR/CR) to current “salvage” therapies. Key pathways (NF-kB, AKT, STAT3), controlling cell growth/survival and chemoresistance in DLBCL have been discovered. Since natural compounds such as turmeric can target multiple pathways with low cellular toxicity, novel compounds with higher potency for cancer cells were sought. Initially, 6 novel turmeric analogues were designed and synthesized using cyclic thioketone and different substituted aromatic aldehydes. […] These compounds were named turmerax (TMX) (1-10), and tested them in the two resistant mantle cell lymphoma cell lines (Mino and Z-138). […] Turmerax compounds 1, 3, 5 and 9 were further analyzed at concentrations below 1 μM for cell growth inhibition in vitro. […] Next, the toxicity of these Turmerax compounds (1, 3, 5 and 9) was evaluated in normal human peripheral blood mononuclear cells (PBMC). […]
# [3] = test system: melanoma, gastric, pancreatic, and glioma cancer cell lines; assay: MTT cell growth inhibition in NF-kB-associated solid tumor cancer cell lines; assay type: cell-based
# Source text: FIG. 11. Effect of TMX-1 in NF-kB-Associated Cancers. Representative cancer cell lines for melanoma, gastric, pancreatic, and glioma were used to analyzed for cell growth inhibition activity of TMX-1 using MTT assays.
# (§2) These formulations may be used in further clinical trials.
# LY10 cells = assay: Annexin V apoptosis assay; assay type: cell-based; conditions: 500 nM drug concentration, 24 hrs
# Method: (§3) FIGS. 12A-C. TMX-1 induces apoptosis in lymphoma cells. (FIG. 12A) A representative lymphoma cell line (LY10) was treated with TMX-1 in a dose-dependent manner for 24 hrs. Apoptosis was determined by Annexin V assays. (FIG. 12B) TMX-1 activates phospho-H2AX (DNA damage marker) and induces bcl-2 cleaving in lymphoma cells. (FIG. 12C) A representative DLBCL cell line (MS) was transfected with a NF-kB-luciferase reporter for 24 hrs. Cells were treated with TMX-1 as indicated.
# (§4) To determine whether TMX-1 can induce apoptosis in lymphoma cells, we treated a diffuse large cell lymphoma (DLBCL) cell line (LY-10) with TMX-1 in a dose-dependent manner for 24 hrs. Control and treated cells were analyzed for apoptosis using Annexin V assays. […] Next, we test whether TMX-1 can induces DNA damage in LY-10 cells. […] The inventors also examined whether TMX-1 can inhibit NF-kB activity in lymphoma cells. For these studies, a DLBCL cell line (MS) was transfected with a NF-kB luciferase reporter for 24 hrs, at which time cells were treated with TMX-1 in a dose- and time-dependent manner. […] There are many NF-kB inhibitors commercially available that have been tested in many cancer systems, but none has ever reached the clinic to cancer treatment. The reason for this is typically because these agents usually target upstream of NF-kB signaling pathways, leading to many unwanted side effects.
# pH2AX = assay: DNA damage marker in LY-10 cells; assay type: cell-based
# Method: as §3, §4
# McA DLBCL cells = assay: Sensitivity of doxorubicin-sensitive DLBCL cells; assay type: cell-based
# Method: (§5) FIG. 7. TMX-1 Targets NF-kB and Key Signaling Pathways in DLBCL to Overcome Chemoresistance. Top left, DLBCL cells (MS) were transfect with the 6×-NF-kB-luciferase expression vector for 24 hrs. Transfected cells were treated with PBS (control) or Lipo-TMX-1 (100 nM) for 4 hrs. Cell lysates were used to analyzed for luciferase activity that was normalized with b-gal activity. Top right, TMX-1 inhibited NIK and pAKT in NHL-B cells. MS cells were treated with increasing doses of Lipo-TMX-1 (0-500 nM) for 24 hrs. NIK and pAKT protein expressions were determined by Western blotting. Bottom, Doxorubicin resistant cells are sensitive to TMX-1. MS cells are resistant to Dox, but are sensitive to TMX-1. McA DLBCL cells are sensitive to both doxorubicin and TMX-1.
# pAKT = assay: Western blotting of pAKT in MS cells; assay type: cell-based; conditions: Lipo-TMX-1 0-500 nM, 24 hrs
# Method: as §5
# Bio-availability in vivo = assay: Bio-availability in vivo
# Source text: as §2
# NIK = assay: Western blotting of NIK in MS cells; assay type: cell-based; conditions: Lipo-TMX-1 0-500 nM, 24 hrs
# Method: as §5
# MS cells = assay: Sensitivity of doxorubicin-resistant DLBCL cells; assay type: cell-based
# Method: as §5
# [4] = Water solubility, suspended in water for 24 hrs; assay type: physicochemical
# Source text: FIG. 8. Water Solubility of Lipo-Turmerax-1 Compound. Liposomal TMX-1 and TMX-1 compounds were suspended in water for 24 hrs.
# as §2
# bcl-2 = bcl-2 cleaving in LY-10 cells; assay type: cell-based
# Method: as §3, §4
# DLBCL cell line (TJ) = assay: Combination cell proliferation assays in DLBCL cell line (TJ); assay type: cell-based; conditions: TJ cells
# Method: FIGS. 14A-B. A representative DLBCL cell line (TJ) was treated with TMX-1 in a dose-dependent manner alone or in combination with Ibrutinib (IB) and carfilzomib (CFZ) and cell proliferation assays were analyzed.
# Recent molecularly targeted therapy, as opposed to classic chemotherapy, has improved the treatment of lymphoid malignancies. At the forefront of clinical development are ibrutinib, an inhibitor of Bruton's tyrosine kinase (btk) and carfilzomib (CFZ), a second-generation proteasome inhibitor.
# [5] = test system: human DLBCL cell lines (Dox-sensitive and Dox-resistant); assay: 72-hr proliferation assays in doxorubicin-sensitive and -resistant DLBCL cell lines; assay type: cell-based
# Method: FIGS. 13A-B. TMX-1 inhibits DLBCL cell proliferation. (FIG. 13A) 24 representative DLBCL cell lines were treated with TMX-1 in dose-dependent manner and analyzed by thymidine incorporation assays for cell growth inhibition. (FIG. 13B) Effect of TMX-1 in doxorubicin highly sensitive and highly resistant DLBCL cell lines (Pham et al., 2011).
# DLBCL are currently initially treated fairly successfully with R-CHOP frontline chemotherapy (˜70-80% initial remission rate), but relapsed/refractory DLBCL occurs frequently (˜40% within 2-3 yrs), with very poor salvage therapy options (˜20% PR/CR). A unique repertoire of human DLBCL cell lines were developed (Ford et al., 1990; Pham et al., 2010) that can be classified into two subgroups, doxorubicin (a key component in CHOP)-sensitive and doxorubicin-resistant. These cell lines were screened against TMX-1 in a dose-dependent manner using 72-hr proliferation assays (FIG. 13A).
# [6] = Mino and Z-138, doses 0-25 μM, thymidine incorporation, read-out: IC50, cell growth inhibition
# [7] = further analyzed at concentrations below 1 μM, read-out: IC50, cell growth inhibition
structure (smiles),measurement,setting,value
"O=C1/C(=C/c2ccc(Cl)c(Cl)c2)CSC/C1=C\c1ccc(Cl)c(Cl)c1 [Turmerax 2, 3,5-bis[(3,4-dichlorophenyl)methylene]-tetrahydrothiopyran-4-one]",IC50,[1]; [6],3000 to 10000 nM
"O=C1/C(=C/c2ccc([N+](=O)[O-])c(O)c2)CSC/C1=C\c1ccc([N+](=O)[O-])c(O)c1 [Turmerax 3, 3,5-bis[(3-hydroxy-4-nitrophenyl)methylene]-tetrahydrothiopyran-4-one]",toxicity to PBMC,[2],only minimal cell toxicity
same,IC50,"[1]; read-out: IC50, cell growth inhibition, Mino and Z-138, doses 0-25 μM, thymidine incorporation",< 1000 nM
same,IC50,"[1]; read-out: IC50, cell growth inhibition, further analyzed at concentrations below 1 μM",200 to 800 nM
"O=C1/C(=C/c2c(F)ccc(Cl)c2F)CSC/C1=C\c1c(F)ccc(Cl)c1F [Turmerax 8, 3,5-bis[(2,6-difluoro-3-chlorophenyl)methylene]-tetrahydrothiopyran-4-one]",IC50,[1]; [6],> 25000 nM
"N#Cc1cccc(/C=C2\CSC/C(=C\c3cccc(C#N)c3)C2=O)c1 [Turmerax 1, 3,5-bis[(3-cyanophenyl)methylene]-tetrahydrothiopyran-4-one]",inhibition of solid tumor cancer cells,[3],highly effective
same,apoptosis induced,LY10 cells,up to 80%
same,pH2AX (DNA damage marker),pH2AX,significantly increased
same,sensitivity of McA DLBCL cells,McA DLBCL cells,sensitive
same,pAKT protein expression,pAKT,inhibited
same,bio-availability,Bio-availability in vivo,reduced bio-availability
same,NIK protein expression,NIK,inhibited
same,toxicity to PBMC,[2],only minimal cell toxicity
same,IC50,[1]; [6],< 1000 nM
same,IC50,[1]; [7],100 to 200 nM
same,sensitivity of MS cells,MS cells,sensitive
same,precipitation in water,[4],shows precipitation
same,bcl-2 anti-apoptotic protein,bcl-2,cleaved
same,effectiveness of combination with ibrutinib compared with combination with CFZ,DLBCL cell line (TJ),more effective than TMX-1 in combination with CFZ
same,interaction with ibrutinib in inhibiting lymphoma cell growth,DLBCL cell line (TJ),highly synergistic
same,activity in Dox-sensitive vs. Dox-resistant DLBCL cell lines,[5],equivalent
"CCOC(=O)c1ccc(/C=C2\CSC/C(=C\c3ccc(C(=O)OCC)cc3)C2=O)cc1 [Turmerax 6, 3,5-bis[(4-ethoxycarbonylphenyl)methylene]-tetrahydrothiopyran-4-one]",IC50,[1]; [6],3000 to 10000 nM
"COc1cccc2c1C(=O)c1c(O)c3c(c(O)c1C2=O)C[C@@](O)(C(=O)CO)C[C@@H]3O[C@H]1C[C@H](N)[C@H](O)[C@H](C)O1 [doxorubicin, reference compound]",sensitivity of McA DLBCL cells,McA DLBCL cells,sensitive
same,sensitivity of MS cells,MS cells,resistant
N#Cc1ccc(/C=C2\CSC/C(=C\c3ccc(C#N)cc3)C2=O)cc1 [Turmerax 9],toxicity to PBMC,[2],some toxicity
same,IC50,[1]; [6],< 1000 nM
same,IC50,[1]; [7],200 to 800 nM
"O=C1/C(=C/c2ccc(Br)cc2)CSC/C1=C\c1ccc(Br)cc1 [Turmerax 10, 3,5-bis[(4-bromophenyl)methylene]-tetrahydrothiopyran-4-one]",IC50,[1]; [6],3000 to 10000 nM
"O=C1/C(=C/c2ccc(Cl)c([N+](=O)[O-])c2)CSC/C1=C\c1ccc(Cl)c([N+](=O)[O-])c1 [Turmerax 5, 3,5-bis[(3-nitro-4-chlorophenyl)methylene]-tetrahydrothiopyran-4-one]",IC50,[1]; [6],< 1000 nM
same,IC50,[1]; [7],100 to 200 nM
"COc1ccc(/C=C2\CSC/C(=C\c3ccc(OC)c(C)c3C)C2=O)c(C)c1C [Turmerax 7, 3,5-bis[(3,4-dimethyl-4-methoxyphenyl)methylene]-tetrahydrothiopyran-4-one]",IC50,[1]; [6],> 25000 nM
"COc1ccc(/C=C2\CSC/C(=C\c3ccc(OC)c(OC)c3OC)C2=O)c(OC)c1OC [Turmerax 4, 3,5-bis[(2,3,4-trimethoxyphenyl)methylene]-tetrahydrothiopyran-4-one]",IC50,[1]; [6],> 25000 nM
